From US7410975B2, “Small molecule toll-like receptor (TLR) antagonists” (Coley Pharmaceutical Group, Inc., priority 2003, dated 2008)

Target: T1, human TLR9 (hTLR9) (Homo sapiens, UniProt Q9NR96)
T1 construct: expressed in transfected cells
T1 sequence (Q9NR96 26-1032): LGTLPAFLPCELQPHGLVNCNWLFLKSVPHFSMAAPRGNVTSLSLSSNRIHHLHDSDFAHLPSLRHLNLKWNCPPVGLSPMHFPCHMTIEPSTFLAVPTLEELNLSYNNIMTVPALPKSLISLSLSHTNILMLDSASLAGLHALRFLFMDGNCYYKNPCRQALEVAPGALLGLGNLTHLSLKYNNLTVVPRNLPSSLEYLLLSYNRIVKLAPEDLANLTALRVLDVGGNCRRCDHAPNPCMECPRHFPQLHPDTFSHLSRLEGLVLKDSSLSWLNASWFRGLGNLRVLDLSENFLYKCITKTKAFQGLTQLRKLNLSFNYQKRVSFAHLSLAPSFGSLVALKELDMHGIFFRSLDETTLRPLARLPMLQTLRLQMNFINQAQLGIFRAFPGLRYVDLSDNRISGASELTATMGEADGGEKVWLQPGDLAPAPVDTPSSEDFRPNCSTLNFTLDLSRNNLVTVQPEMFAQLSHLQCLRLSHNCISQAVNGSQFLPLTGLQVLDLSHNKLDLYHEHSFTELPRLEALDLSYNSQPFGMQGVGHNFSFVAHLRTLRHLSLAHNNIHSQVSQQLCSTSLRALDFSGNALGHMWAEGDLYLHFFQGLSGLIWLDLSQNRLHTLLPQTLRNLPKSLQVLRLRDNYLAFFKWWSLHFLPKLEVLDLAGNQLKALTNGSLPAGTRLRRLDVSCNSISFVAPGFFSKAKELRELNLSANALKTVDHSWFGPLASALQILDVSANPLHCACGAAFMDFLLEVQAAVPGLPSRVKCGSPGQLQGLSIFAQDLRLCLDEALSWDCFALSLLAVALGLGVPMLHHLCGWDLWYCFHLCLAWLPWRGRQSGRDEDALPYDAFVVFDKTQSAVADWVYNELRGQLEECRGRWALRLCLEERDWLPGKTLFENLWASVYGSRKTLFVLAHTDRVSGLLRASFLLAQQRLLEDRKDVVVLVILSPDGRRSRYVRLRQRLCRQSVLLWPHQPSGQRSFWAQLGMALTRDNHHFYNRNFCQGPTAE
Test: Antagonist screen, hTLR9-NFκB-293 cells, 6× NF-κB-luciferase reporter, with EC50 of CpG ODN 2006
Format: cell-based
Conditions: compound at 0.5, 5, 50 μg/ml; EC50 concentration of CpG ODN 2006; 16 h; NF-κB-luciferase
Experimental: Candidate small molecules for initial screening were obtained from a commercially available library of 880 off-patent small molecules selected for structural diversity and proven bioavailability in humans (Prestwick Chemical Library). […] Results were measured as fold induction over baseline luciferase activity measured in the absence of ODN 2006 and compared to fold induction over baseline in the presence of the EC50 concentration of ODN 2006 alone. […] Additional screening was performed in like manner using additional small molecules selected from another library or specifically prepared for this purpose.
The method is described in greater detail as follows. The cells for each individual cell clone (hTLR3-NFκB-293, hTLR7-NFκB-293, hTLR8-NFκB-293 and hTLR9-NFκB-293) were counted and seeded one day before the stimulation at 1.5×10^4 cells per well in 96-well cell culture plates. To become adherent the cells were incubated after seeding overnight at 37° C. in 5% CO2 humidified air.
The screen for each compound was performed at the same time for all of the receptors TLR3, TLR7, TLR8 and TLR9. Up to fifteen test compounds, each assayed in duplicate at each of three different final concentrations (0.5 μg/ml, 5 μg/ml, and 50 μg/ml), were used for 16 h cell stimulation on a single multiwell culture plate. A 4× final concentration master plate was created to prepare the different test compounds before they were added to the cells.
Controls were added as duplicates individually for each cell clone on the cell culture plate. Positive controls were used as follows (final concentrations): 50 μg/ml poly(I:C) for hTLR3-NFκB-293; 8 μM resiquimod (R848) for hTLR7-NFκB-293; 30 μM R848 for hTLR8-NFκB-293; and 2.5 μM CpG-ODN 2006 for hTLR9-NFκB-293. Media alone was used as negative control. After addition of controls and small molecules, the cell clones were additionally stimulated with the EC50 concentration of the appropriate receptor-specific ligand.
The mean value of wells H2 and H5 (each with cells and EC50 concentration of the appropriate receptor-specific ligand) divided by the mean of wells H3 and H6 (each with cells alone) yielded the baseline response (i.e., fold induction of luciferase activity) to EC50 concentration of the appropriate receptor-specific ligand.
After 16 h stimulation the supernatant was removed and the cells treated with lysis buffer and stored at −80° C. before measuring.
For each screen result a graphical documentation was performed.
The baseline result (measured with addition of the EC50 concentration of the receptor-specific ligand) for each cell culture plate was measured as described above. Antagonistic effects were measured by down regulation compared to the baseline. Antagonists were scored as follows: • 13: compounds for which there was clear down regulation at 0.5 μg/ml, 5 μg/ml, and 50 μg/ml; • 12: compounds for which there was clear down regulation at 5 μg/ml and 50 μg/ml; • 11: compounds for which there was clear down regulation only at 50 μg/ml; • —: compounds for which there was no clear down regulation even at 50 μg/ml. Agonists

| Structure (SMILES) | hTLR9 (inhibitory effect, antagonist score) |
| --- | --- |
| CC1NCCc2c1[nH]c1ccccc21.Cl (racemic) [compound 619, Eleagnine hydrochloride (R,S)] | 12 (compounds for which there was clear down regulation at 5 μg/ml and 50 μg/ml) |
| O=C1c2c(O)cccc2Cc2cccc(O)c21 [compound 43, Anthralin] | 13 (compounds for which there was clear down regulation at 0.5 μg/ml, 5 μg/ml, and 50 μg/ml) |
| CN(C)CCCN1c2ccccc2Sc2ccc(C(F)(F)F)cc21.Cl [compound 53, Triflupromazinehydrochloride] | 13 (compounds for which there was clear down regulation at 0.5 μg/ml, 5 μg/ml, and 50 μg/ml) |
| CN(C)CCCN1c2ccccc2Sc2ccc(Cl)cc21.Cl [compound 64, Chlorpromazinehydrochloride] | 12 (compounds for which there was clear down regulation at 5 μg/ml and 50 μg/ml) |
| CN(C)CCC=C1c2ccccc2CCc2ccccc21.Cl [compound 74, Amitryptilinehydrochloride] | 12 (compounds for which there was clear down regulation at 5 μg/ml and 50 μg/ml) |
| OC(c1ccccc1)(c1ccccc1)C1CCNCC1 [compound 93, Azacyclonol] | 11 (compounds for which there was clear down regulation only at 50 μg/ml) |
| CN1Cc2c(N)cccc2C(c2ccccc2)C1.O=C(O)/C=C\C(=O)O (stereo not drawn) [compound 108, Nomifensine maleate] | 11 (compounds for which there was clear down regulation only at 50 μg/ml) |
| C[C@]12N[C@H](Cc3ccccc31)c1ccccc12.O=C(O)/C=C\C(=O)O [compound 109, Dizocilpine maleate] | 13 (compounds for which there was clear down regulation at 0.5 μg/ml, 5 μg/ml, and 50 μg/ml) |
| OCCN1CCN(CCCN2c3ccccc3Sc3ccc(Cl)cc32)CC1 [compound 125, Perphenazine] | 11 (compounds for which there was clear down regulation only at 50 μg/ml) |
| CN1CCN(CCCN2c3ccccc3Sc3ccc(S(=O)(=O)N(C)C)cc32)CC1.CS(=O)(=O)O.CS(=O)(=O)O [compound 149, Thioproperasinedimesylate] | 13 (compounds for which there was clear down regulation at 0.5 μg/ml, 5 μg/ml, and 50 μg/ml) |
| Clc1ccccc1C(c1ccccc1)(c1ccccc1)n1ccnc1 [compound 267, Clotrimazole] | — (compounds for which there was no clear down regulation even at 50 μg/ml) |
| CC(NCCC(c1ccccc1)c1ccccc1)c1ccccc1.Cl (stereo not drawn) [compound 270, Fendiline hydrochloride] | — (compounds for which there was no clear down regulation even at 50 μg/ml) |
| CN1CCC(=C2c3ccccc3Sc3ccccc32)CC1.O=C(O)/C=C\C(=O)O [compound 294, Pimethixene maleate] | 11 (compounds for which there was clear down regulation only at 50 μg/ml) |
| O=c1[nH]c2ccccc2n1C1CCN(CCCC(c2ccc(F)cc2)c2ccc(F)cc2)CC1 [compound 308, Pimozide] | 12 (compounds for which there was clear down regulation at 5 μg/ml and 50 μg/ml) |
| Cl.Cl.OCCN1CCN(CC/C=C2/c3ccccc3Sc3ccc(C(F)(F)F)cc32)CC1 [compound 340, Flupentixoldihydrochloride cis-(Z)] | 11 (compounds for which there was clear down regulation only at 50 μg/ml) |
| CNCCCN1c2ccccc2CCc2ccccc21.Cl [compound 343, Desipraminehydrochloride] | 12 (compounds for which there was clear down regulation at 5 μg/ml and 50 μg/ml) |
| CN(C)CC/C=C1/c2ccccc2Sc2ccc(Cl)cc21.Cl [compound 348, Chlorprothixenehydrochloride] | 12 (compounds for which there was clear down regulation at 5 μg/ml and 50 μg/ml) |
| Cc1cccc(C)c1NC(=O)CN1CCN(CCCC(c2ccc(F)cc2)c2ccc(F)cc2)CC1 [compound 381, Lidoflazine] | 11 (compounds for which there was clear down regulation only at 50 μg/ml) |
